Experimental data from patent US20210047278A1, “E3 UBIQUITIN LIGASE AGONISTS, PHARMACEUTICAL COMPOSITIONS INCLUDING THE E3 UBIQUITIN LIGASE AGONISTS, RELATED METHODS OF USE” (FRED HUTCHINSON CANCER RESEARCH CENTER, priority 2018, published 2021).
Like-named read-outs stand apart in the source and are kept apart here.

How the values were obtained:
Format in all cases: binding
FBW7^ARG+pCycE = target: T1, FBW7^ARG+pCycE (Homo sapiens, UniProt Q969H0, R505L); assay: FBW7^ARG-cyclin E agonist ALPHAscreen (primary PRUN, confirmation CRUN1, dose-response DRUN); conditions: for EC50 / Emax: DRUN dose-response; for Emax: relative to WT-FBW7+pCycE, read-out: FBW7 ACT Averaged Max % Response
T1 construct: GST (TEV site and flexible linker) (N, cleaved yes); made in house; host or cells: SF9 insect cells (baculovirus)
Method in brief: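 ALPHAscreen agonist assay: His-tagged FBW7 R505L on Ni-chelate acceptor beads (25 nM FBW7, 25 nM biotinylated phospho-cyclin E peptide, 10 µg/ml beads), streptavidin donor beads, ALPHA signal read. Primary and confirmation runs at 26.1 μM; dose-response as 10-point 3-fold series to ~87 μM, in triplicate; activation relative to WT-FBW7+pCycE.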

FBW7^ARG (RLFBW7) alone = target: T2, FBW7^ARG (RLFBW7) alone (Homo sapiens, UniProt Q969H0, R505L); assay: Counterscreen 1 ALPHAscreen with FBW7^ARG alone (CSRUN1/DCSRUN1); conditions: dose-response counterscreen; for Emax: read-out: RLFBW7 ACT DCSRUN1 Averaged Max % Response
T2 construct: GST (TEV site and flexible linker) (N, cleaved yes); made in house; host or cells: SF9 insect cells (baculovirus)
Method in brief: (§1)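 ALPHAscreen counterscreens, read on ENVISION, omitting either FBW7^ARG or the phosphorylated cyclin E peptide to flag general ALPHAscreen agonists. Compounds tested in triplicate as 10-point 3-fold dilutions up to approximately 87 μM. Activation expressed relative to WT-FBW7+pCycE, with 10% set as positive.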

pCycE alone = assay: Counterscreen 2 ALPHAscreen with cyclin E phosphopeptide alone (CSRUN2/DCSRUN2); conditions: for CyCEP ACT DCSRUN2 Averaged Max % Response: activation relative to WT-FBW7+pCycE, averaged maximum; for EC50: dose-response, triplicate, 10 point 3-fold dilutional series, read-out: CyCEP ACT DCSRUN2 Final EC50
Method in brief: as §1

[1] = raw curve fit, read-out: FBW7 ACT EC50 Curve Fit Raw, Molar
[2] = triplicate, 10 point 3-fold dilution, max approx. 87 μM, read-out: FBW7 ACT Final EC50, Molar
[3] = confirmation assay, triplicate, single concentration 26.1 μM, read-out: FBW7 ACT CRUN1 Avg % Response and Stdev
[4] = primary screen, 1536-well, 26.1 μM, FBW7^ARG + pCycE degron peptide, high control wt-FBW7+pCycE, read-out: FBW7 ACT PRUN % Response
[5] = raw curve fit, read-out: RLFBW7 ACT DCSRUN1 EC50 Curve Fit Raw
[6] = read-out: RLFBW7 ACT DCSRUN1 Final EC50

T2 sequence (Q969H0 64-707 R505L): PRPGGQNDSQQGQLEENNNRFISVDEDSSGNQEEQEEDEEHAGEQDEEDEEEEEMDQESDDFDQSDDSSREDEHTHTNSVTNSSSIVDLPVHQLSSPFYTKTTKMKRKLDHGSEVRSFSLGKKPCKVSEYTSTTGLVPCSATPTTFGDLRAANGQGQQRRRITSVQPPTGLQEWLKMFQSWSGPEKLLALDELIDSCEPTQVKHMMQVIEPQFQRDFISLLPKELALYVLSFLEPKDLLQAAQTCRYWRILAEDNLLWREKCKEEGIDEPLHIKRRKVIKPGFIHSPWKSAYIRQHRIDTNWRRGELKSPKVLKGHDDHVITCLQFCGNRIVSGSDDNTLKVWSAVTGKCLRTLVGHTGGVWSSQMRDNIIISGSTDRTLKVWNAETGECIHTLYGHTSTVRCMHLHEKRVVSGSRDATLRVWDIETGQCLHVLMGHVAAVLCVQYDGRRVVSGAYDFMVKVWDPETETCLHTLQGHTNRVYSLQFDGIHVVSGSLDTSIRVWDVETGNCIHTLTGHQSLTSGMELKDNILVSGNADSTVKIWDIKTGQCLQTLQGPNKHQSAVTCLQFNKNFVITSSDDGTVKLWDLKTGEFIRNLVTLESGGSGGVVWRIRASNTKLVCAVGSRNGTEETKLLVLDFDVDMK
T2 sequence (P63208 2-163 partner): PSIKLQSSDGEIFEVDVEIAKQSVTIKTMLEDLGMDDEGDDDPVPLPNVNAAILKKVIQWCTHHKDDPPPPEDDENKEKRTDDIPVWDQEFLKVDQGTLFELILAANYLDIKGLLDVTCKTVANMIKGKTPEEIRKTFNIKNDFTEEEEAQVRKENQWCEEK
T1 sequence (Q969H0 64-707 R505L): as the sequence (Q969H0 64-707 R505L) above
T1 sequence (P63208 2-163 partner): as the sequence (P63208 2-163 partner) above

| Compound | EC50 (FBW7^ARG+pCycE; [1]) [µM] | Emax (FBW7^ARG+pCycE) [%] | EC50 (FBW7^ARG+pCycE; [2]) [µM] | activation at 26.1 µM (FBW7^ARG+pCycE; [3]) [%] | activation at 26.1 µM (FBW7^ARG+pCycE; [4]) [%] | EC50 (FBW7^ARG (RLFBW7) alone; [5]) [µM] | Emax (FBW7^ARG (RLFBW7) alone) [%] | EC50 (FBW7^ARG (RLFBW7) alone; [6]) [µM] | CyCEP ACT DCSRUN2 Averaged Max % Response (pCycE alone) [%] | EC50 (pCycE alone) [µM] | RLFBW7 ACT DCSRUN1 Hill Slope (FBW7^ARG (RLFBW7) alone) |
| --- | --- | --- | --- | --- | --- | --- | --- | --- | --- | --- | --- |
| Cc1nc(C(C)NC(=O)c2cc(COc3ccc(F)cc3F)on2)cs1 (stereo not drawn) [SR-01000168282-1] | 2.3 | 6.52 | > 65.3 | 1.88 ± 0.38 | 2.02 | 0.0108 | 1.75 | > 65.3 | 0.37 | > 65.3 |  |
| CC1=C(C(=O)OC(C)C)C(c2ccncc2)C2=C(CC(c3ccccc3)CC2=O)N1 (stereo not drawn) [SR-01000217822-2] | 23 | 7.67 | > 60.9 | 6.36 ± 0.25 | 2.06 | 25.2 | 0.88 | > 60.9 | 0.03 | > 60.9 |  |
| CCSCCOC(=O)C1=C(C)NC2=C(C(=O)CCC2)C1c1ccc(Br)cc1 (stereo not drawn) [SR-01000422432-1] | 7.1 | 7.86 | > 54.4 | 5.2 ± 0.56 | 2.03 | 24.5 | 0.86 | > 54.4 | 0.21 | > 54.4 |  |
| CCSc1nnc(C2CCN(CC(=O)Nc3cccc4ccccc34)CC2)n1C [SR-01000349710-1] | 18 | 22.9 | > 65.3 | 7.92 ± 0.35 | 2.77 | 47.6 | 0.67 | > 65.3 | 0.22 | > 65.3 |  |
| COc1ccc(SCC(=O)NNC(=S)Nc2ccccc2)cc1 [SR-01000526835-1] | 7.3 | 10.1 | > 56.6 | 2.1 ± 0.29 | 2.07 | 7.5 | 2.56 | > 56.6 | 2.80 | > 56.6 |  |
| CC1=C(C(=O)OC2CCCCC2)C(c2ccc(F)cc2)C2=C(CC(c3ccccc3)CC2=O)N1 (stereo not drawn) [SR-01000420805-1] | 18.2 | 10 | > 50.8 | 6.77 ± 1.17 | 1.92 | 20.2 | 3.33 | > 50.8 | 0.22 | > 50.8 |  |
| CC(=O)Nc1ccc(NC(=O)Cn2cnc3c(cnn3C(C)(C)C)c2=O)cc1 [SR-01000137195-1] | 13.4 | 15.2 | > 65.3 | 4.47 ± 0.6 | 4.02 | 0.0182 | 0.23 | > 65.3 | 0.27 | > 65.3 |  |
| CCN1C(=O)c2cccc3c(N4CCCC4)ccc(c23)C1=O [SR-01000221568-1] | 17.4 | 16.3 | > 65.3 | 3.1 ± 0.38 | 2.07 | 14.2 | 8.96 | > 65.3 | 0.35 | > 65.3 |  |
| O=c1c2cnn(-c3ccccc3)c2nnn1Cc1cccnc1 [SR-01000355082-1] | 0.009 | 6.4 | > 65.3 | 2.54 ± 0.42 | 1.95 | 11.9 | 2.7 | > 65.3 | 0.12 | > 65.3 |  |
| CCN(CC)c1ccc2c(c1)OC(N)=C(C#N)C2c1ccccc1 (stereo not drawn) [SR-01000320053-1] | 31.4 | 13.7 | > 65.3 | 2.14 ± 0.69 | 3.43 | 75.4 | 6.24 | > 65.3 | 0.22 | > 65.3 |  |
| Cc1ccc(-c2cccc3cnc(Nc4ccc(-n5cnc(-c6ccccn6)n5)cc4)nc23)cn1.O=C(O)C(F)(F)F [SR-00000008492-1] | 4 | 8.53 | > 65.3 | 4.91 ± 0.39 | 5.73 | 6.6 | 29.7 | > 65.3 | 0.22 | > 65.3 |  |
| COc1ccccc1C1C(C(=O)OC2CCCC2)=C(C)NC2=C1C(=O)CC(c1ccccc1)C2 (stereo not drawn) [SR-01000422836-1] | 2400 | 10.3 | > 45.9 | 5.59 ± 0.74 | 2.6 | 16.4 | 4.23 | > 45.9 | 0.14 | > 45.9 |  |
| NC(c1nc2cc(-c3ccncc3)cnc2[nH]1)c1ccc(F)cc1F.O=C(O)C(F)(F)F (stereo not drawn) [SR-00000003416-1] | 8.8 | 16.4 | > 65.3 | 3.91 ± 0.47 | 3.51 | 4 | 0.2 | > 65.3 | 0.29 | > 65.3 |  |
| C/C(=N\Nc1cccc(C(F)(F)F)c1)C1CC1 [SR-01000041073-1] | 15.5 | 26.6 | > 75.4 | 10.7 ± 0.12 | 3.41 | 42.4 | 101 | 39.8 | 0.22 | > 75.4 | 3.57 |
| CC(C)(C)OC(=O)N/N=C\c1cccs1 [SR-01000110457-1] | 1.4 | 6.03 | > 65.3 | 2.27 ± 0.05 | 5.59 | 0.823 | 1.17 | > 65.3 | 0.10 | > 65.3 |  |
| CC(NC(=O)c1cnc2ccccn12)c1ccc(F)cc1 (stereo not drawn) [SR-01000378746-1] | 0.0903 | 6.66 | > 65.3 | 3.47 ± 0.47 | 2.82 | 0.011 | 1.12 | > 65.3 | 0.23 | > 65.3 |  |
| COc1ccc(OC)c(/C=C2/N=C(c3cccc([N+](=O)[O-])c3)OC2=O)c1 [SR-01000414795-1] | 0.0017 | 7.11 | > 59.3 | 2.95 ± 3.6 | 1.88 |  | -0.422 | > 59.3 | 0.02 | > 59.3 |  |
| CC(=O)NCC(c1cccs1)S(=O)(=O)c1ccc(C)cc1 (stereo not drawn) [SR-01000023077-1] | 15.3 | 18.4 | > 64.6 | 2.46 ± 0.31 | 1.85 | 33.3 | 0.39 | > 64.6 | 0.18 | > 64.6 |  |
| COCCOC(=O)C1=C(C)NC2=C(C(=O)CC(c3ccccc3)C2)C1c1ccc(OCc2ccccc2)cc1 (stereo not drawn) [SR-01000422392-1] | 30.4 | 8.49 | > 51.3 | 5.36 ± 0.53 | 3.41 | 0.689 | 3 | > 51.3 | −57.8E−3 | > 51.3 |  |
| CCOC(=O)C1CCN(C(=O)Nc2ccc(NC(=O)C3CCN(C(=O)OCC)CC3)cc2)CC1 [SR-01000451467-1] | 9.6 | 15.5 | > 45.3 | 5.81 ± 0.4 | 6.08 | 0.0074 | 1.76 | > 45.3 | 2.82 | > 45.3 |  |
| CC(C)[C@@H](CO)Nc1ccc2ncc(-c3cccc(Cl)c3)n2n1 [SR-01000383396-1] | 0.127 | 6.14 | > 65.3 | 2.27 ± 0.17 | 2.03 |  | 0.49 | > 65.3 | 0.27 | > 65.3 |  |
| Cc1c(NC(=O)/C(=C\c2ccccc2)NC(=O)c2ccccc2)c(=O)n(-c2ccccc2)n1C [SR-01000422225-1] | 0.0401 | 6.91 | > 56.7 | 4.37 ± 0.72 | 1.87 | 0.619 | 0.11 | > 56.7 | 0.18 | > 56.7 |  |
